# Test results published in the Deep4Chem optical property database.
# Experiment: photoluminescence quantum yield (fraction); solvent given as SMILES
# [1] = in c1ccc2c(c1)c1ccccc1n2-c1ccc(-c2ccc(-n3c4ccccc4c4ccccc43)cc2)cc1
smiles,measurement,setting,value
Cc1cc(C)c(C2=C3C=C(/C=C/C(=O)OC(C)(C)C)C=[N+]3[B-](F)(F)n3c2ccc3N2CCOCC2)c(C)c1,photoluminescence quantum yield,in CC#N,0.13
same,photoluminescence quantum yield,in CCCCCC,0.88
same,photoluminescence quantum yield,in CN(C)C=O,0.15
same,photoluminescence quantum yield,in CO,0.21
same,photoluminescence quantum yield,in Cc1ccccc1,0.64
same,photoluminescence quantum yield,in ClCCl,0.49
C1=Cc2ccccc2Cc2ccccc21,photoluminescence quantum yield,in CC#N,0.82
same,photoluminescence quantum yield,in CO,0.016
Cc1cc(C)nc(N)n1,photoluminescence quantum yield,in CCO,0.15
same,photoluminescence quantum yield,in CO,0.248
same,photoluminescence quantum yield,in O,0.048
CCC1=C(C)C2=Cc3ccccc3B(O)N2C1=O,photoluminescence quantum yield,in CC#N,0.42
same,photoluminescence quantum yield,in CCCCCC,0.25
same,photoluminescence quantum yield,in CO,0.12
same,photoluminescence quantum yield,in CS(C)=O,0.19
same,photoluminescence quantum yield,in ClC(Cl)Cl,0.36
Cc1ccc(-c2ccc(/C=C/c3ccc(C#N)cc3)cn2)nc1,photoluminescence quantum yield,in CC#N,0.27
O=c1oc2cccc3c4cccc5ccc6c7cc(F)ccc7c1c(c23)c6c54,photoluminescence quantum yield,in C1CCOC1,0.216
Nc1n[n+]([O-])c2cc(F)ccc2[n+]1[O-],photoluminescence quantum yield,in CC#N,0.0077
same,photoluminescence quantum yield,in O,0.003
Cc1cc2cc3cc(C)c(C)cc3cc2cn1,photoluminescence quantum yield,in CCO,0.44
CCCCCCCCCCc1cc(-c2cc(CCCCCCCCCC)c(-c3cccs3)s2)sc1-c1cccs1,photoluminescence quantum yield,in CCC(C)C,0.16
c1ccc2c(P(c3c4ccccc4cc4ccccc34)c3c4ccccc4cc4ccccc34)c3ccccc3cc2c1,photoluminescence quantum yield,in C1CCOC1,0
CC1(C)C(/C=C/C2=C(c3ccc(C(=O)O)cc3)C(=C/C=C3/N(CCCS(=O)(=O)[O-])c4ccc5ccccc5c4C3(C)C)/CCC2)=[N+](CCCS(=O)(=O)[O-])c2ccc3ccccc3c21,photoluminescence quantum yield,in CO,0.088
Cc1nc2cccc(-c3nc4ccccc4o3)c2c(=O)[nH]1,photoluminescence quantum yield,in CN(C)C=O,0.392
Nc1ccc2c(c1)C(=O)O/C2=C\c1ccc(Cl)cc1,photoluminescence quantum yield,in CC#N,0.08
same,photoluminescence quantum yield,in CC(C)=O,0.1
same,photoluminescence quantum yield,in CC(C)CO,0.2
same,photoluminescence quantum yield,in CC(C)O,0.18
same,photoluminescence quantum yield,in CCCO,0.18
same,photoluminescence quantum yield,in CCO,0.17
same,photoluminescence quantum yield,in CCOC(C)=O,0.11
same,photoluminescence quantum yield,in CCOCC,0.12
same,photoluminescence quantum yield,in CO,0.14
CC[N+](CC)=c1ccc2c(-c3ccccc3C(=O)O)c3c(=O)oc4c5c6c(cc4c3oc-2c1)CCCN6CCC5,photoluminescence quantum yield,in CCO,0.01
same,photoluminescence quantum yield,in ClC(Cl)Cl,0.09
CN(C)c1ccc(C2=Cc3c4ccccc4cc[n+]3[B-](F)(F)O2)cc1,photoluminescence quantum yield,in C1CCOC1,0.658
same,photoluminescence quantum yield,in C1COCCO1,0.863
same,photoluminescence quantum yield,in CC1CCCCC1,0.979
same,photoluminescence quantum yield,in CC#N,0.638
same,photoluminescence quantum yield,in CCOC(C)=O,0.663
same,photoluminescence quantum yield,in CCOCC,0.848
same,photoluminescence quantum yield,in CN(C)C=O,0.561
same,photoluminescence quantum yield,in CO,0.499
same,photoluminescence quantum yield,in COC(C)=O,0.587
same,photoluminescence quantum yield,in ClC(Cl)Cl,0.743
CC1=N/C(=C\c2ccncc2)C(=O)N1C,photoluminescence quantum yield,in C1COCCO1,0.165
same,photoluminescence quantum yield,in CC#N,0.047
same,photoluminescence quantum yield,in CCO,0.033
same,photoluminescence quantum yield,in CCOC(C)=O,0.089
same,photoluminescence quantum yield,in O,0.0065
O=C(c1ccncc1)c1ccc(-n2c3ccccc3c3ccccc32)cc1,photoluminescence quantum yield,in Cc1ccccc1,0.012
same,photoluminescence quantum yield,in c1cc(-c2cccc(-n3c4ccccc4c4ccccc43)c2)cc(-n2c3ccccc3c3ccccc32)c1,0.38
CON(OC)c1cc2c3cc(-c4c(C)cc(C)cc4C)cc4c5cc(-c6c(C)cc(C)cc6C)cc6c7cc(B(c8c(C)cc(C)cc8C)c8c(C)cc(C)cc8C)cc8c9cc(-c%10c(C)cc(C)cc%10C)cc%10c%11cc(-c%12c(C)cc(C)cc%12C)cc%12c(c1)c2c1c(c43)c(c65)c(c78)c(c9%10)c1c%11%12,photoluminescence quantum yield,in C1CCOC1,0.46
same,photoluminescence quantum yield,in CC(C)=O,0.05
same,photoluminescence quantum yield,in CCCCCC,0.22
same,photoluminescence quantum yield,in Cc1ccccc1,0.42
same,photoluminescence quantum yield,in ClC(Cl)Cl,0.46
same,photoluminescence quantum yield,in ClCCl,0.56
COC(=O)c1ccc(C#Cc2ccccc2)cc1,photoluminescence quantum yield,in C1CCCCC1,0.421
same,photoluminescence quantum yield,in CC#N,0.277
same,photoluminescence quantum yield,in CC(C)O,0.398
same,photoluminescence quantum yield,in CCCCCC,0.42
same,photoluminescence quantum yield,in CCCCCCCCCCCCCCCC,0.429
same,photoluminescence quantum yield,in CCCCCCCCCCCCCCCCCl,0.441
same,photoluminescence quantum yield,in CO,0.305
COc1ccc(/C=C/c2nc(/C=C/c3ccc(N(c4ccccc4)c4ccccc4)cc3)cc(/C=C/c3ccc(N(c4ccccc4)c4ccccc4)cc3)n2)cc1,photoluminescence quantum yield,in ClCCl,0.91
CN(C)c1ccc2nc3c(cc2c1)c(-c1ccccc1)nn3-c1ccccc1,photoluminescence quantum yield,in C1CCCCC1,0.84
same,photoluminescence quantum yield,in C1CCOC1,0.62
same,photoluminescence quantum yield,in CC#N,0.57
same,photoluminescence quantum yield,in CC(C)=O,0.58
same,photoluminescence quantum yield,in CCCCCl,0.64
same,photoluminescence quantum yield,in CCCCOCCCC,0.77
same,photoluminescence quantum yield,in CN(C)C=O,0.46
CCCC1(CCC)c2cc(-c3ccc(C(C)(C)C)cc3)ccc2-c2ccc(-c3ccc4c(c3)C(CCC)(CCC)c3cc(-c5ccc6c(c5)C(CCC)(CCC)c5cc(-c7ccc(C(C)(C)C)cc7)ccc5-6)ccc3-4)cc21,photoluminescence quantum yield,in C1CCCCC1,0.9
CCn1c(-c2ccc(-c3ccc4ccc5cccc6ccc3c4c56)cc2)c(-c2ccc3ccccc3c2)c(-c2ccc3ccccc3c2)c1-c1ccc(-c2ccc3ccc4cccc5ccc2c3c45)cc1,photoluminescence quantum yield,in CCOC(C)=O,0.99
COc1cc2c(cc1-c1ccc(C(F)(F)F)cc1)Cc1c3c(c4c(c1-2)-c1cc(OC)c(-c2ccc(C(F)(F)F)cc2)cc1C4)C(=O)N(CCC(C)C)C3=O,photoluminescence quantum yield,in C1CCOC1,0.45
c1cc2oc3cccc4oc5cccc6oc(c1)c2[c+](c34)c65,photoluminescence quantum yield,in CC#N,0.11
CCN(C)c1ccc(C2=C3C(C)=CC(/C=C/c4ccc(OCCCN=[N+]=[N-])cc4)=[N+]3[B-](F)(F)n3c(C)cc(C)c32)cc1,photoluminescence quantum yield,in CO,0.69
COCCOCCOCCOCC(COCCOCCOCCOC)Oc1cc(/C=C/c2ccc(C=C3C(=O)c4ccccc4C3=O)cc2)c(OC(COCCOCCOCCOC)COCCOCCOCCOC)cc1/C=C/c1ccc(C=C2C(=O)c3ccccc3C2=O)cc1,photoluminescence quantum yield,in ClCCl,0.23
O=C(c1ccc(N2c3ccccc3Sc3ccccc32)cc1)c1ccc2sc3ccccc3c2c1,photoluminescence quantum yield,in C1CCOC1,0.005
same,photoluminescence quantum yield,[1],0.768
F[B-]1(F)n2c(c3c(c2-c2ccccc2)C2C=CC3CC2)C(c2ccccc2)=C2C3=C(C(c4ccccc4)=[N+]21)C1C=CC3CC1 (stereo unspecified),photoluminescence quantum yield,in ClCCl,0.87
COc1ccc(-n2cccc2)cc1,photoluminescence quantum yield,in CC#N,0.33
same,photoluminescence quantum yield,in CCCCCC,0.26
c1ccc(N(c2ccccc2)c2ccc(-c3ccc4c(c3)C3(c5ccccc5Oc5ccccc53)c3cc(-c5ccc(N(c6ccccc6)c6ccccc6)cc5)ccc3-4)cc2)cc1,photoluminescence quantum yield,in ClCCl,0.91
same,photoluminescence quantum yield,in c1cc(-n2c3ccccc3c3ccccc32)cc(-n2c3ccccc3c3ccccc32)c1,0.9
c1ccc([Si]2(c3ccccc3)c3ccccc3-c3cc4c(cc32)-c2ccccc2[Si]4(c2ccccc2)c2ccccc2)cc1,photoluminescence quantum yield,in ClCCl,0.56
c1ccc2c(c1)-c1ccccc1[Si]21c2ccccc2-c2cc3c(cc21)-c1ccccc1[Si]31c2ccccc2-c2ccccc21,photoluminescence quantum yield,in ClCCl,0.59
COc1ccc(-c2ccc(/C=C/c3ccncn3)cc2)cc1,photoluminescence quantum yield,in ClCCl,0.14
Fc1c(F)c(-n2c3ccccc3c3ccccc32)c(F)c(F)c1-c1nnc(-c2ccccc2)o1,photoluminescence quantum yield,in Cc1ccccc1,0.27
CCCCCCN1C(=O)C(c2ccc(-c3ccc(-n4c5ccccc5c5ccccc54)cc3)cc2)=C(c2ccc(-c3ccc(-n4c5ccccc5c5ccccc54)cc3)cc2)C1=O,photoluminescence quantum yield,in ClC(Cl)Cl,0.84
same,photoluminescence quantum yield,[1],0.57
CCCCCCC(CCCCCC)N1C(=O)c2cccc3c(-c4ccccc4)ccc(c23)C1=O,photoluminescence quantum yield,in CCCCCC,0.076
same,photoluminescence quantum yield,in CCCCCCCCCCCCCC,0.094
same,photoluminescence quantum yield,in CCCCCCCCCCCO,0.76
same,photoluminescence quantum yield,in CCCCO,0.95
same,photoluminescence quantum yield,in CN(C)C=O,0.74
same,photoluminescence quantum yield,in Cc1ccccc1,0.5
same,photoluminescence quantum yield,in ClC(Cl)Cl,0.78
C(=C\c1ccncn1)/c1ccc(-c2ccc(N(c3ccccc3)c3ccccc3)cc2)cc1,photoluminescence quantum yield,in ClCCl,0.52
CCN1C(=O)C(C2C(=O)c3c4ccccc4cc4cc5ccccc5c2c34)SC1=S (stereo unspecified),photoluminescence quantum yield,in C1CCOC1,0.258
same,photoluminescence quantum yield,in CC#N,0.135
same,photoluminescence quantum yield,in CCCCCC,0.33
same,photoluminescence quantum yield,in Cc1ccccc1,0.339
same,photoluminescence quantum yield,in ClCCl,0.229
N#Cc1cnc(-c2c3ccccc3c(-c3ncc(C#N)cn3)c3ccccc23)nc1,photoluminescence quantum yield,in CCO,0.16
same,photoluminescence quantum yield,in ClCCl,0.54
COC(=O)C(N)Cc1ccc(O[Si]2(Oc3ccc(CC(N)C(=O)OC)cc3)n3c4c5ccccc5c3/N=C3N=C(/N=c5/c6ccccc6/c(n52)=N/C2=NC(=N\4)/c4ccccc42)c2ccccc2\3)cc1 (stereo unspecified),photoluminescence quantum yield,in CN(C)C=O,0.12
CCN(CC)c1ccc2cc(-c3nc4cc(C(=O)Nc5ccccc5[N+](=O)[O-])ccc4o3)c(=O)oc2c1,photoluminescence quantum yield,in ClCCl,0.38
CN1/C(=C/C=C(/C=C/C2=[N+](C)c3ccccc3C2(C)C)c2ccc(C(F)(F)F)cc2)C(C)(C)c2ccccc21,photoluminescence quantum yield,in CCO,0.11
same,photoluminescence quantum yield,in CO,0.09
same,photoluminescence quantum yield,in CS(C)=O,0.23
COc1ccc(/C=C/C2=NC(=C\c3ccncc3)/C(=O)N2C)cc1,photoluminescence quantum yield,in C1COCCO1,0.005
same,photoluminescence quantum yield,in CC#N,0.0026
same,photoluminescence quantum yield,in CCO,0.0027
same,photoluminescence quantum yield,in CCOC(C)=O,0.003
same,photoluminescence quantum yield,in O,0.0029
CCCCN1/C(=C\c2c(-c3ccc(N(C)C)cc3)c(=O)c2=O)C=Cc2ccccc21,photoluminescence quantum yield,in C1CCCCC1,0.0242
same,photoluminescence quantum yield,in Cc1ccccc1,0.0163
same,photoluminescence quantum yield,in ClCCl,0.001
N#C/C(=C\c1ccc(Cl)cc1)c1nc(-c2ccccc2)c(-c2ccccc2)s1,photoluminescence quantum yield,in CC#N,0.004
COc1ccc(-c2csc(/C(C#N)=C/c3c(Cl)cccc3Cl)n2)cc1,photoluminescence quantum yield,in CC#N,0.038
O=C(c1sc(-c2ccc(-c3cc(-c4cccs4)c(C(=O)N4CCOCC4)s3)s2)cc1-c1cccs1)N1CCOCC1,photoluminescence quantum yield,in ClCCl,0.14
CC(C)(C)c1ccc(-c2c(-c3ccc4c5ccccc5n(-c5ccccc5)c4c3)c(C#N)c(-c3ccc4c5ccccc5n(-c5ccccc5)c4c3)c(-c3ccc(C(C)(C)C)cc3)c2-c2ccc(C(C)(C)C)cc2)cc1,photoluminescence quantum yield,in C1CCOC1,0.457
C[Si]1(C)c2ccc(-c3ccc(-c4cccs4)s3)cc2C=Cc2cc(-c3ccc(-c4cccs4)s3)ccc21,photoluminescence quantum yield,in ClCCl,0.1
